{
  "source": "paper PMC12305494",
  "about": "“Discovery of PXR Antagonist MI891 and PXR Degrader MI1013 and Their Roles in Hepatic Gene Regulation” (Journal of Medicinal Chemistry, 2025)",
  "key": {"[1]": {"experiment": "Microsomal stability, human microsomes", "assay_type": "in vitro ADME", "details": "liver microsomes; 0.5 mg/mL human microsomes, 5 μM, up to 45 min; read-out: Microsomal stability, t1/2 (min), human", "experimental": "The protocols and reagents for the plasma protein binding assay and metabolic stability testing in human and mouse liver microsomes are detailed in our previous report. […] The stability of compounds was tested in human and mouse microsomes (ThermoFisher Scientific). Compounds were tested in triplicate with or without NADPH wells as a negative control for cytochrome P450 metabolism. […] Each assay included a substrate with known activity as a positive control. Time points were analyzed by LC/MS/MS. The peak area for the parent compound is compared to the time zero sample in order to assess the amount of remaining compound."}, "[2]": {"target": "T1, Pim-1(h) (Homo sapiens, UniProt P11309)", "T1 construct": "purchased Eurofins (Millipore) KinaseProfiler, inferred from the naming style", "T1 sequence (P11309 whole entry)": "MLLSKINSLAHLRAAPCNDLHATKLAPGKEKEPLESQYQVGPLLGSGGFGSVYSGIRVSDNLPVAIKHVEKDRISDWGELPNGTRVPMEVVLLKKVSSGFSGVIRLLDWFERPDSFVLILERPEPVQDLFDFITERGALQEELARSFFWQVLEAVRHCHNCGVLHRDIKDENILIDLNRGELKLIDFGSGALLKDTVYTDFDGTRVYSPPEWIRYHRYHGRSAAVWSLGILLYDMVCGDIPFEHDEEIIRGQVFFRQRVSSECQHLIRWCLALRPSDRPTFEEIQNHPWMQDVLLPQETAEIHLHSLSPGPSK", "experiment": "Off-target kinase panel", "assay_type": "biochemical", "experimental": "(§1) To evaluate the selectivity of MI891, an off-target profiling study was performed using a panel of 58 kinases."}, "[3]": {"target": "CDK1/cyclinB(h) (Homo sapiens, UniProt P06493)", "experiment": "Off-target kinase panel", "assay_type": "biochemical", "details": "MI891 @ 1 µM", "experimental": "as §1"}, "[4]": {"target": "T2, Rsk1(h) (Homo sapiens, UniProt Q15418)", "T2 construct": "purchased Eurofins (Millipore) KinaseProfiler, inferred from the naming style", "experiment": "Off-target kinase panel", "assay_type": "biochemical", "details": "MI891 @ 1 µM", "experimental": "as §1"}, "[5]": {"target": "T3, TAK1(h) (Homo sapiens, UniProt O43318)", "T3 construct": "purchased Eurofins (Millipore) KinaseProfiler, inferred from the naming style", "T3 sequence (O43318 1-303 limits assumed)": "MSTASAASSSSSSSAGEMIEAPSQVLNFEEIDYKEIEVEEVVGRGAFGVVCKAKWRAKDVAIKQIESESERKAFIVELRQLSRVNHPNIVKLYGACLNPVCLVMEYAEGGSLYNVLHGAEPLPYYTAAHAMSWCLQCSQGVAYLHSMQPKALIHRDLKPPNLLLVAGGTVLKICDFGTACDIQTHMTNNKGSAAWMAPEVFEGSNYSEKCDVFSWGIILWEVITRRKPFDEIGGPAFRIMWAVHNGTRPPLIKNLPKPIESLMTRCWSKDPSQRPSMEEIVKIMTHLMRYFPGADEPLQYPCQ", "experiment": "Off-target kinase panel", "assay_type": "biochemical", "details": "MI891 @ 1 µM", "experimental": "as §1"}, "[6]": {"target": "GSK3β(h) (Homo sapiens, UniProt P49841)", "sequence (P49841 whole entry)": "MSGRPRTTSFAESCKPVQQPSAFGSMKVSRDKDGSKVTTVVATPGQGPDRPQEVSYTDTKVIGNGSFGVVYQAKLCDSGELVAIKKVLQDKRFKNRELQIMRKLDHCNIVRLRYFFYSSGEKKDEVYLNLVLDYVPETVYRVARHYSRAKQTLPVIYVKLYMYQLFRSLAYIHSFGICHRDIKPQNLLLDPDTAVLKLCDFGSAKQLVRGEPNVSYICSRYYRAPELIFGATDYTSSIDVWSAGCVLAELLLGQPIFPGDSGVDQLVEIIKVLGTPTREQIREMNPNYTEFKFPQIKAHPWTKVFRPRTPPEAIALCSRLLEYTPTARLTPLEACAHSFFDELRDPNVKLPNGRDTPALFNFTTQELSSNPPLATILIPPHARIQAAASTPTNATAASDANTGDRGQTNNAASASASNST", "experiment": "Off-target kinase panel", "assay_type": "biochemical", "details": "MI891 @ 1 µM", "experimental": "as §1"}, "[7]": {"target": "CDK2/cyclinA(h) (Homo sapiens, UniProt P24941)", "experiment": "Off-target kinase panel", "assay_type": "biochemical", "details": "MI891 @ 1 µM", "experimental": "as §1"}, "[8]": {"target": "CK2α2(h) (Homo sapiens, UniProt P19784)", "sequence (P19784 whole entry)": "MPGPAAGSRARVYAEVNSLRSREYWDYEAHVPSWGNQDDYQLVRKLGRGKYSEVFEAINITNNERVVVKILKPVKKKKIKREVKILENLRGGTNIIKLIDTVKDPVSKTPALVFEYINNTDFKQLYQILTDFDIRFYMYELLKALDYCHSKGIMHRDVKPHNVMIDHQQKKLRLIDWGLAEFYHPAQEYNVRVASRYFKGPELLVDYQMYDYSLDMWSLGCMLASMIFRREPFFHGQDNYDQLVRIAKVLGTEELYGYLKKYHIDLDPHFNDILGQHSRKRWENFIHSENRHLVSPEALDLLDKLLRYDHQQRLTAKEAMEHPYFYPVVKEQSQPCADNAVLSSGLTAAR", "experiment": "Off-target kinase panel", "assay_type": "biochemical", "details": "MI891 @ 1 µM", "experimental": "as §1"}, "[9]": {"target": "T4, PRAK(h) (Homo sapiens, UniProt Q8IW41)", "T4 construct": "purchased Eurofins (Millipore) KinaseProfiler, inferred from the naming style", "experiment": "Off-target kinase panel", "assay_type": "biochemical", "details": "MI891 @ 1 µM", "experimental": "as §1"}, "[10]": {"target": "Aurora-A(h) (Homo sapiens, UniProt O14965)", "experiment": "Off-target kinase panel", "assay_type": "biochemical", "details": "MI891 @ 1 µM", "experimental": "as §1"}, "[11]": {"target": "T5, PI3 Kinase (p110a/p85a)(h) (Homo sapiens, UniProt P42336)", "T5 construct": "purchased Eurofins (Millipore) KinaseProfiler, inferred from the naming style", "experiment": "Off-target kinase panel", "assay_type": "biochemical", "details": "MI891 @ 1 µM", "experimental": "as §1"}, "[12]": {"target": "T6, PI3 Kinase (p110b/p85a)(h) (Homo sapiens, UniProt P42338)", "T6 construct": "purchased Eurofins (Millipore) KinaseProfiler, inferred from the naming style", "experiment": "Off-target kinase panel", "assay_type": "biochemical", "details": "MI891 @ 1 µM", "experimental": "as §1"}, "[13]": {"target": "ASK1(h) (Homo sapiens, UniProt Q99683)", "experiment": "Off-target kinase panel", "assay_type": "biochemical", "details": "MI891 @ 1 µM", "experimental": "as §1"}, "[14]": {"target": "T7, JAK2(h) (Homo sapiens, UniProt O60674)", "T7 construct": "purchased Eurofins (Millipore) KinaseProfiler, inferred from the naming style", "T7 sequence (O60674 whole entry)": "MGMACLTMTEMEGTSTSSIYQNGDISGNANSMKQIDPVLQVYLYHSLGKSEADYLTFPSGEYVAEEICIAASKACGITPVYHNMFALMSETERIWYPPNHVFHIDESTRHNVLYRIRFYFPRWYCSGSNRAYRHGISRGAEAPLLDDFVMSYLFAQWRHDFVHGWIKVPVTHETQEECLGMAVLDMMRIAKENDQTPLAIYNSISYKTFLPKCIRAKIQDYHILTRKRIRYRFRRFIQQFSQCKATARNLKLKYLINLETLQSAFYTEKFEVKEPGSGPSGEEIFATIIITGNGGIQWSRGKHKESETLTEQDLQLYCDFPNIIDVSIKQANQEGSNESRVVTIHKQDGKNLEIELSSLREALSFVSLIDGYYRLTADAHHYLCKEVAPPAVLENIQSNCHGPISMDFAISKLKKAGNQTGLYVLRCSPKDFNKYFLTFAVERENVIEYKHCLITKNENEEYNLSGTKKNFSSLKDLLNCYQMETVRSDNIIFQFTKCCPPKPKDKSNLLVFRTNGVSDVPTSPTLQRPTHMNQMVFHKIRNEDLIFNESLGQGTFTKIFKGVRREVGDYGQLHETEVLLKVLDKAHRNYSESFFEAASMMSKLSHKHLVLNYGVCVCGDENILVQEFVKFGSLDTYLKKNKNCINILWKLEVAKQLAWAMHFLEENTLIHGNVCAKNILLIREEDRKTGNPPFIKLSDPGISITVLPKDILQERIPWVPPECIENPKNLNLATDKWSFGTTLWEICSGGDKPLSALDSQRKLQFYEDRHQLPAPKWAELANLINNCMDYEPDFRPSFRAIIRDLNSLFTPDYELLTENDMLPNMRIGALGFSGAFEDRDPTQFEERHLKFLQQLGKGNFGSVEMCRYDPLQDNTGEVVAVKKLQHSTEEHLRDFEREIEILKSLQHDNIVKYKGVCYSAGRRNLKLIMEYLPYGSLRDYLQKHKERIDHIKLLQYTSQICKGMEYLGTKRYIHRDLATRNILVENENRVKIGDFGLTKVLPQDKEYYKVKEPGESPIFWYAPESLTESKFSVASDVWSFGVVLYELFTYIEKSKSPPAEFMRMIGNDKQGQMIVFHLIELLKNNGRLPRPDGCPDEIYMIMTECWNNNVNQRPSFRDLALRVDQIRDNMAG", "experiment": "Off-target kinase panel", "assay_type": "biochemical", "details": "MI891 @ 1 µM", "experimental": "as §1"}, "[15]": {"target": "Abl(h) (Homo sapiens, UniProt P00519)", "experiment": "Off-target kinase panel", "assay_type": "biochemical", "details": "MI891 @ 1 µM", "experimental": "as §1"}, "[16]": {"target": "T8, PKG1α(h) (Homo sapiens, UniProt Q13976)", "T8 construct": "purchased Eurofins (Millipore) KinaseProfiler, inferred from the naming style", "experiment": "Off-target kinase panel", "assay_type": "biochemical", "details": "MI891 @ 1 µM", "experimental": "as §1"}, "[17]": {"target": "EGFR(h) (Homo sapiens, UniProt P00533)", "experiment": "Off-target kinase panel", "assay_type": "biochemical", "details": "MI891 @ 1 µM", "experimental": "as §1"}, "[18]": {"target": "T9, ROCK-I(h) (Homo sapiens, UniProt Q13464)", "T9 construct": "purchased Eurofins (Millipore) KinaseProfiler, inferred from the naming style", "experiment": "Off-target kinase panel", "assay_type": "biochemical", "details": "MI891 @ 1 µM", "experimental": "as §1"}, "[19]": {"target": "eEF-2K(h) (Homo sapiens, UniProt O00418)", "experiment": "Off-target kinase panel", "assay_type": "biochemical", "details": "MI891 @ 1 µM", "experimental": "as §1"}, "[20]": {"target": "T10, Plk3(h) (Homo sapiens, UniProt Q9H4B4)", "T10 construct": "purchased Eurofins (Millipore) KinaseProfiler, inferred from the naming style", "experiment": "Off-target kinase panel", "assay_type": "biochemical", "details": "MI891 @ 1 µM", "experimental": "as §1"}, "[21]": {"target": "T11, SAPK2a(h) (Homo sapiens, UniProt Q16539)", "T11 construct": "purchased Eurofins (Millipore) KinaseProfiler, inferred from the naming style", "T11 sequence (Q16539 whole entry)": "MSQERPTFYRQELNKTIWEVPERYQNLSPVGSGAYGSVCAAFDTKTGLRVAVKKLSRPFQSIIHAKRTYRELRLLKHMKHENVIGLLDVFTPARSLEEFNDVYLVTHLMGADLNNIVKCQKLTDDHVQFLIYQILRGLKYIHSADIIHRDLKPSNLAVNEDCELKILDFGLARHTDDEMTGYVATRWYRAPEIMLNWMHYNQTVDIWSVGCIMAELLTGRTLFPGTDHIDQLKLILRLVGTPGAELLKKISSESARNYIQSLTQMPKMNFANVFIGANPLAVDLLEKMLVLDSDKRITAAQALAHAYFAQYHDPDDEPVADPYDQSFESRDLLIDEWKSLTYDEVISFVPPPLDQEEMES", "experiment": "Off-target kinase panel", "assay_type": "biochemical", "details": "MI891 @ 1 µM", "experimental": "as §1"}, "[22]": {"target": "T12, MST1(h) (Homo sapiens, UniProt Q13043)", "T12 construct": "purchased Eurofins (Millipore) KinaseProfiler, inferred from the naming style", "experiment": "Off-target kinase panel", "assay_type": "biochemical", "details": "MI891 @ 1 µM", "experimental": "as §1"}, "[23]": {"target": "T13, PKA(h) (Homo sapiens, UniProt P17612)", "T13 construct": "purchased Eurofins (Millipore) KinaseProfiler, inferred from the naming style", "experiment": "Off-target kinase panel", "assay_type": "biochemical", "details": "MI891 @ 1 µM", "experimental": "as §1"}, "[24]": {"target": "AMPKα1(h) (Homo sapiens, UniProt Q13131)", "sequence (Q13131 whole entry)": "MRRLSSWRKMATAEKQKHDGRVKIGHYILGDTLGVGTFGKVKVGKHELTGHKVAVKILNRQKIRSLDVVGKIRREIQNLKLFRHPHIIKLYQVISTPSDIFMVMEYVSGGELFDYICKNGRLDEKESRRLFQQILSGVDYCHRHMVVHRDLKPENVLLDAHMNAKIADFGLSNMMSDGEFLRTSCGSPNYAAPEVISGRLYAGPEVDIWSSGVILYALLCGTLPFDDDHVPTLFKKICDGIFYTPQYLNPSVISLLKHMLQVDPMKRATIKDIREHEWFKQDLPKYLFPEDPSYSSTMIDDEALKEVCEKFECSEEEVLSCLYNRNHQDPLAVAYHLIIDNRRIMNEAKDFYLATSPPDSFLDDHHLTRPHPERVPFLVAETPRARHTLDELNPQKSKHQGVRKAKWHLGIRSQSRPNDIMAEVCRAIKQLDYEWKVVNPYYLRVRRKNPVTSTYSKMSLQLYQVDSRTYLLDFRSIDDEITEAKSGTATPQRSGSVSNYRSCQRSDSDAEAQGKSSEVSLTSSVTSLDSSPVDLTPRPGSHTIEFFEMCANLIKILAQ", "sequence (Q9Y478 whole entry partner)": "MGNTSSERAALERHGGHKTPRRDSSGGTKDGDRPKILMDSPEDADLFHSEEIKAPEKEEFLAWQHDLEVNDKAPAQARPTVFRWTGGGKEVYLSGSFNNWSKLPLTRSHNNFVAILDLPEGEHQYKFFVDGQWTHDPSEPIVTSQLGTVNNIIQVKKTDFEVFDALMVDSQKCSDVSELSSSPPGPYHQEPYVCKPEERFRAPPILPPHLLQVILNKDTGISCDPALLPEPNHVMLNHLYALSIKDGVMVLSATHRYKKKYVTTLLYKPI", "sequence (P54619 whole entry partner)": "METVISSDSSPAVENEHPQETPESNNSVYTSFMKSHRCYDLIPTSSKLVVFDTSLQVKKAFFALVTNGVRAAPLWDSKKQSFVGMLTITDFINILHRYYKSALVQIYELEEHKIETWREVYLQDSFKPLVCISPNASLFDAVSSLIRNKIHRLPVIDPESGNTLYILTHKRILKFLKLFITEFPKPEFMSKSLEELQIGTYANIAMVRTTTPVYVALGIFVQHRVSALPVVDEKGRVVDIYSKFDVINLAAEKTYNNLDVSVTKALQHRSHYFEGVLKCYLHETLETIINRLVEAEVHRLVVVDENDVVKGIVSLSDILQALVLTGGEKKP", "experiment": "Off-target kinase panel", "assay_type": "biochemical", "details": "MI891 @ 1 µM", "experimental": "as §1"}, "[25]": {"target": "T14, MSK2(h) (Homo sapiens, UniProt O75676)", "T14 construct": "purchased Eurofins (Millipore) KinaseProfiler, inferred from the naming style", "experiment": "Off-target kinase panel", "assay_type": "biochemical", "details": "MI891 @ 1 µM", "experimental": "as §1"}, "[26]": {"target": "T15, eGFP-tagged PXR (Homo sapiens, UniProt O75469+Q96SW2)", "T15 construct": "host or cells: COS-1", "T15 sequence (O75469 whole entry)": "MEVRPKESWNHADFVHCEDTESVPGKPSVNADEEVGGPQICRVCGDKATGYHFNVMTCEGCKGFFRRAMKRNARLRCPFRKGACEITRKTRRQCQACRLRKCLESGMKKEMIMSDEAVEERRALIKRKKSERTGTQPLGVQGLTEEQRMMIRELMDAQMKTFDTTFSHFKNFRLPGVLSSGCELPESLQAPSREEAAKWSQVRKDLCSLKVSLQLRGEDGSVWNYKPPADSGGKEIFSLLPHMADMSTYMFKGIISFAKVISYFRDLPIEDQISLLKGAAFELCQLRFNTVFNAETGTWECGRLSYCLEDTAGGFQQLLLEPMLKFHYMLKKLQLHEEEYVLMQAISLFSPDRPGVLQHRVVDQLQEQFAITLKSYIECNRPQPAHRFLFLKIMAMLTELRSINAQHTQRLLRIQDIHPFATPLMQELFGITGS", "T15 sequence (Q96SW2 whole entry)": "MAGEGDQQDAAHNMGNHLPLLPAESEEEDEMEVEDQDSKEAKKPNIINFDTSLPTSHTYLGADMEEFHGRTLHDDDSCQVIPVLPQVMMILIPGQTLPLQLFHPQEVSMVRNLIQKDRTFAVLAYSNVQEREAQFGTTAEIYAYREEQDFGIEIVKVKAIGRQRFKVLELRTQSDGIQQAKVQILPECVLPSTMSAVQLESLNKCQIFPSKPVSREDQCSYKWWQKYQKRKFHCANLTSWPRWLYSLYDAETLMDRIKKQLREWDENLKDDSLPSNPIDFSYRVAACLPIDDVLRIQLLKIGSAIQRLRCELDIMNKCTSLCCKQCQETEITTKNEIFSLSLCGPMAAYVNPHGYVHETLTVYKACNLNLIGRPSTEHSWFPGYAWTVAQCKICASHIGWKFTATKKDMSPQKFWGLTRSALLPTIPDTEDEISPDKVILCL", "experiment": "Fluorescence (eGFP) intensity assay in COS-1 cells", "assay_type": "cell-based", "details": "24 h", "experimental": "COS-1 cells were transfected with 150 ng of PXR-eGFP (NR1I2_pcDNA3.1(+)-N-eGFP, GenScript Biotech) and 150 ng of CRBN (GenScript - CRBN_OHu21180D_pcDNA3.1+/C-(K)-DYK) in a 48-well plate using Lipofectamine 3000, following the manufacturer’s protocol. After 24 h, the transfected cells were treated with varying concentrations of the MI1013 compound and incubated for another 24 h. The eGFP fluorescence was then checked and imaged using the Invitrogen EVOS imaging system. Fluorescence intensity was measured using the Spark Multimode Microplate Reader (V2.2) in Fluorescence Intensity Scan Top Reading mode. The excitation wavelength was set between 440 and 500 nm, and the emission wavelength was set at 545 nm (Monochromator), with a gain of 100 and an integration time of 40 μs. Graphs were generated using GraphPad Prism."}},
  "data": [
    {"molecule": "NC(=O)c1cc(Cn2cc(-c3c(-c4ccc(Cl)cc4)nc4c(F)cc(F)cn34)nn2)ccc1Cl", "note": "[Compound 11, 2-Chloro-5-((4-(2-(4-chlorophenyl)-6,8-difluoroimidazo[1,2-a]pyridin-3-yl)-1H-1,2,3-triazol-1-yl)methyl)-benzamide]", "values": [
      {"measurement": "half-life at 5 μM", "setting": "[1]", "result": "> 45", "unit": "min"},
      {"measurement": "activity at 1 µM", "setting": "[2]; MI891 @ 1 µM", "result": 53, "unit": "%"},
      {"measurement": "inhibition at 1 µM", "setting": "[2]; at 1 μM", "result": 53, "unit": "%"},
      {"measurement": "activity at 1 µM", "setting": "[3]", "result": 96, "unit": "%"},
      {"measurement": "activity at 1 µM", "setting": "[4]", "result": 129, "unit": "%"},
      {"measurement": "activity at 1 µM", "setting": "[5]", "result": 90, "unit": "%"},
      {"measurement": "activity at 1 µM", "setting": "[6]", "result": 99, "unit": "%"},
      {"measurement": "activity at 1 µM", "setting": "[7]", "result": 106, "unit": "%"},
      {"measurement": "activity at 1 µM", "setting": "[8]", "result": 109, "unit": "%"},
      {"measurement": "activity at 1 µM", "setting": "[9]", "result": 81, "unit": "%"},
      {"measurement": "activity at 1 µM", "setting": "[10]", "result": 81, "unit": "%"},
      {"measurement": "activity at 1 µM", "setting": "[11]", "result": 92, "unit": "%"},
      {"measurement": "activity at 1 µM", "setting": "[12]", "result": 100, "unit": "%"},
      {"measurement": "activity at 1 µM", "setting": "[13]", "result": 91, "unit": "%"},
      {"measurement": "activity at 1 µM", "setting": "[14]", "result": 101, "unit": "%"},
      {"measurement": "activity at 1 µM", "setting": "[15]", "result": 104, "unit": "%"},
      {"measurement": "activity at 1 µM", "setting": "[16]", "result": 85, "unit": "%"},
      {"measurement": "activity at 1 µM", "setting": "[17]", "result": 103, "unit": "%"},
      {"measurement": "activity at 1 µM", "setting": "[18]", "result": 97, "unit": "%"},
      {"measurement": "activity at 1 µM", "setting": "[19]", "result": 112, "unit": "%"},
      {"measurement": "activity at 1 µM", "setting": "[20]", "result": 113, "unit": "%"},
      {"measurement": "activity at 1 µM", "setting": "[21]", "result": 99, "unit": "%"},
      {"measurement": "activity at 1 µM", "setting": "[22]", "result": 94, "unit": "%"},
      {"measurement": "activity at 1 µM", "setting": "[23]", "result": 108, "unit": "%"},
      {"measurement": "activity at 1 µM", "setting": "[24]", "result": 102, "unit": "%"},
      {"measurement": "activity at 1 µM", "setting": "[25]", "result": 110, "unit": "%"}
    ]},
    {"molecule": "N-(4-((1-(2,5-dimethoxyphenyl)-5-methyl-1H-1,2,3-triazol-4-yl)sulfonyl)phenyl)-3-(2-(2-(2-(4-(((2-(2,6-dioxopiperidin-3-yl)-1,3-dioxoisoindolin-4-yl)amino)methyl)-1H-1,2,3-triazol-1-yl)ethoxy)ethoxy)ethoxy)propenamide [Compound 36]", "values": [
      {"measurement": "degradation of eGFP-tagged PXR (loss of fluorescence)", "setting": "[26]", "result": "dose-dependent degradation of eGFP-tagged PXR"}
    ]}
  ]
}
